We go through 2 molecules from patent US20170367338A1, “COMPOSITIONS AND METHODS FOR IMPROVING AGRONOMIC CHARACTERISTICS OF PLANTS” (MONSANTO TECHNOLOGY LLC, priority 2014, published 2017).

Converted amounts (≈) assume the structure as drawn. Like-named read-outs stand apart in the source and are kept apart here.

In general, EC50 refers to the concentration needed to bring the measured effect to its halfway point.

The test system of one series is root knot nematode (RKN). The series can be described thus: RKN greenhouse soil assay on cucumber plants. The class given is in vivo. As to conditions: Radex emulsifiable concentrate formulation (6.25% active ingredient).
Series [1] deals with Meloidogyne incognita. The series can be described thus: M. incognita miniaturized greenhouse assay on cucumber seedlings. The format is in vivo. As to conditions: 1 ppm; Table 1C test a. As for the experimental part:
The test compound is dissolved in an acetone solution and added to water. A sprouted cucumber seedling is placed into a vial with dry sand and the water-chemical solution is added immediately. Twenty four hours later Meloidogyne incognita eggs are added to the vials and 10 to 12 days later the roots are evaluated for nematode galling.
Cucumber seeds are sprouted for 3 days in moist paper towels. Acceptable sprouts should be 3 to 4 cm long with several lateral roots just emerging. Stock solutions of chemistry are prepared in a mixture of acetone and Triton X100 (412 mg in 500 mL) to a final concentration of 5 mg/mL. The chemical stock solution is then added to 10 mL deionized water plus 0.015% Triton X100 and mixed thoroughly. This is enough to test each condition in triplicate. Ten mL dry sand is added to each vial. At this time the solubility of the chemistry is visually determined and recorded as either ppt (large precipitates) or cloudy (fine precipitates). Seedlings are planted by tilting the vial and laying the seedling in the correct orientation so that the cotyledons are just above the sand and then tilting back to cover the radicles with sand. 3.3 ml water/chemical mix is added to each vial and the vials placed in racks under fluorescent light banks. The vials are inoculated two days after planting by adding 500 vermiform M. incognita eggs to each vial in 50 uL of deionized or spring water. The vials are then kept under the fluorescent lamps at ambient room temperature and watered as needed with 1mL deionized water, usually twice during duration of test. Harvest of the cucumber plants is done 10 to 12 days after inoculation by washing sand off the roots. A root gall rating and visual phytotoxicity rating is assigned using the following scales: Gall rating scale (Gall: % root mass galled): 0=0-5%; 1=6-20%; 2=21-50%; and 3=51-100%. The average of the triplicate gall rating is then calculated: green=0.00-0.33 (no galls); yellow=0.67-1.33 (mild galling); orange=1.67-2.33 (moderate galling); red=2.67-3.00 (severe galling). Visual phytotoxicity scale is also assigned (Vis. tox; visual reduction in root mass compared to the control): rs1=mild stunting; rs2=moderate stunting; rs3=severe stunting.

The format of series [2] is in vivo. The note with it: three female mice, observed up to 14 days. As for the experimental part:
Acute oral toxicity testing was performed in mice in accordance with test method P203.UDP, as administered by Eurofins/Product Safety Laboratories (Dayton, New Jersey). CD-1/Swiss derived albino mice were obtained and group housed in suspended solid bottom caging. The mice were fed rodent chow and filtered tap water was supplied ad libitum. Following acclimation to the laboratory setting, a group of animals was fasted overnight by removing food from the cages. After the fasting period, three female mice were selected based on vitality and initial body weights. The individual compound doses were calculated from these body weights.
The test substance was prepared as a 1% (50 mg/kg) or 5% (500 mg/kg) weight to weight (w/w) mixture in a 0.5% w/w solution of carboxymethylcellulose (CMC) in distilled water. A tissue homogenizer was used to create a homogeneous mixture. A dose of 50 or 500 mg/kg was administered to three healthy mice per dose level by oral intubation using a ball-tipped gavage needle attached to a syringe. After administration, the animals were returned to their cages, and feed was replaced immediately after dosing.
Body weights were recorded prior to initiation and on Days 7 and 14 or a soon as possible after death.

Series [3] has as its system Meloidogyne incognita. The series can be described thus: Summer field evaluation of pre-plant incorporated compounds on squash. The class given is in vivo. As to conditions: 4 kg/ha. The procedure, abridged:
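Compound in acetone/Triton X-100 emulsion mixed into sand/silt loam with galled tomato roots, filling top 15 cm of field plots (pre-plant incorporated), 6 replicates. Plots inoculated with 100k M. incognita eggs/larvae at 5 cm depth. Squash cv. Liberator III transplanted 4 days after treatment.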

A further series concerns C. elegans. In words: Three day C. elegans well assay. The class given is in vivo. As to conditions: Caenorhabditis elegans. The procedure, abridged:
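Contact assay in wells: DMSO dilutions (4 ul from 100× stocks at 10 mg/ml) with bacterial feed in M9 buffer plus ampicillin and nystatin. L1 (starvation-arrested) or L4 worms added, shaken at 20° C. Scored at 4, 24, 48 and 72 hours.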

Series [4] deals with Caenorhabditis elegans ced-3(n717) and ced-4(N1162) mutants. The series can be described thus: Susceptibility of C. elegans apoptosis mutants on NGM agar plates. The format is in vivo. As to conditions: 10μg/ml on NGM agar plates.

For the molecule `c1ccc(-c2noc(-c3cccs3)n2)cc1` [compound 1822], the “percent control (galling reduction), Radex 1 mg/kg” value with root knot nematode (RKN) stood at 98%. Besides, the “1 ppm gall rating” value in the series with Meloidogyne incognita [1] is listed as 0 (0=0-5%). Besides, the “acute oral toxicity: mortality and signs” value is recorded as “all animals survived” in series [2] (50 mg/kg oral) and “all animals died within three days” in series [2] (500 mg/kg oral).

For `Cc1cc(Cl)ccc1-c1noc(-c2ccco2)n1` [compound 5823], the “control of M. incognita by PPI application” value in the series on Meloidogyne incognita [3] is reported as “excellent control”. Moreover, the EC50 was 0.4 µg/mL (≈ 1.53 µM) with C. elegans (24 h, L1 larvae, one day of exposure, read-out: EC50 L1 1D); 1.6 µg/mL (≈ 6.14 µM) in the series with C. elegans (24 h, L4 larvae, one day of exposure, read-out: EC50 L4 1D); 0.4 µg/mL (≈ 1.53 µM) in the series with C. elegans (48 h, L1 larvae, two days of exposure, read-out: EC50 L1 2D); 0.4 µg/mL (≈ 1.53 µM) with C. elegans (48 h, L4 larvae, two days of exposure, read-out: EC50 L4 2D); 0.4 µg/mL (≈ 1.53 µM) in the series with C. elegans (72 h, L1 larvae, three days of exposure, read-out: EC50 L1 3D); 0.4 µg/mL (≈ 1.53 µM) in the series on C. elegans (72 h, L4 larvae, three days, effects on the second generation larvae, read-out: EC50 L4 3D (F1)). In addition, the “susceptibility of ced-3 and ced-4 mutants versus wild-type C. elegans (N2 Bristol), including time to mortality” value in series [4] is “No observable phenotypic difference in susceptibility”.
